# Results from PMC4993559 (Journal of Experimental Pharmacology, 2016).
# pIC50: −log10 of the molar value. Like-named read-outs stand apart in the source and are kept apart here.
# Key:
# [1] = molecular target: T1, c-src (Homo sapiens, UniProt P12931); settings: read-out: IC50 (class); Momelotinib scale; cited from earlier work
# [2] = molecular target: T2, ROS1 (Homo sapiens, UniProt P08922); settings: read-out: IC50 (class); Momelotinib scale; cited from earlier work
# [3] = molecular target: T3, CSF1R (c-fms) (Homo sapiens, UniProt P07333); settings: read-out: IC50 (class); Momelotinib scale; cited from earlier work
# T3 sequence (P07333 20-972): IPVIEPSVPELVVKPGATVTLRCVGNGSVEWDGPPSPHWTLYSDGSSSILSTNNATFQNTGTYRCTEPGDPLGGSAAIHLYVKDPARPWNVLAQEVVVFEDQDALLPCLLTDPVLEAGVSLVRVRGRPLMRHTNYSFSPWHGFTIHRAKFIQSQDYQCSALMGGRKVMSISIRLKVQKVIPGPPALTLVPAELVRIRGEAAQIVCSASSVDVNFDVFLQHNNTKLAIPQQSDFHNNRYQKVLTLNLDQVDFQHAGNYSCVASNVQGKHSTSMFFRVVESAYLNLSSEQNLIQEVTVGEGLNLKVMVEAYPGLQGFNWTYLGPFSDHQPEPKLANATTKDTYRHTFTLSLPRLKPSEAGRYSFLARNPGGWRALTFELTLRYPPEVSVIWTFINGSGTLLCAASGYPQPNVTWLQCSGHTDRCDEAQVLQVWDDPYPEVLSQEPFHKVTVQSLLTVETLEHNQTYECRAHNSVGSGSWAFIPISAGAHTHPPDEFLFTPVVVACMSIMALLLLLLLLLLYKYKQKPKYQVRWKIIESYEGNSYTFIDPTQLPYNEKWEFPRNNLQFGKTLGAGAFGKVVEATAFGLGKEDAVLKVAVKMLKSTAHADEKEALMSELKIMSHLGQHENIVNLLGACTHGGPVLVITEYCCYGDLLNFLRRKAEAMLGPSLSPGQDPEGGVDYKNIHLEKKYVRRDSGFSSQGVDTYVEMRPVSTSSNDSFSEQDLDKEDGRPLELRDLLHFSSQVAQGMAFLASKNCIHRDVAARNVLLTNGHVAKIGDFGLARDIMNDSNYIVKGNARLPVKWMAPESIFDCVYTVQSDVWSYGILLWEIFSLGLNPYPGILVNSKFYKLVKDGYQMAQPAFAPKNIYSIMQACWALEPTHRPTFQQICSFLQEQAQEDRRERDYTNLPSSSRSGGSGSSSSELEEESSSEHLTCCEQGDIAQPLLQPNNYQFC
# [4] = molecular target: T4, HIPK4 (Homo sapiens, UniProt Q8NE63); settings: read-out: IC50 (class); Momelotinib scale; cited from earlier work
# T4 sequence (Q8NE63 1-616): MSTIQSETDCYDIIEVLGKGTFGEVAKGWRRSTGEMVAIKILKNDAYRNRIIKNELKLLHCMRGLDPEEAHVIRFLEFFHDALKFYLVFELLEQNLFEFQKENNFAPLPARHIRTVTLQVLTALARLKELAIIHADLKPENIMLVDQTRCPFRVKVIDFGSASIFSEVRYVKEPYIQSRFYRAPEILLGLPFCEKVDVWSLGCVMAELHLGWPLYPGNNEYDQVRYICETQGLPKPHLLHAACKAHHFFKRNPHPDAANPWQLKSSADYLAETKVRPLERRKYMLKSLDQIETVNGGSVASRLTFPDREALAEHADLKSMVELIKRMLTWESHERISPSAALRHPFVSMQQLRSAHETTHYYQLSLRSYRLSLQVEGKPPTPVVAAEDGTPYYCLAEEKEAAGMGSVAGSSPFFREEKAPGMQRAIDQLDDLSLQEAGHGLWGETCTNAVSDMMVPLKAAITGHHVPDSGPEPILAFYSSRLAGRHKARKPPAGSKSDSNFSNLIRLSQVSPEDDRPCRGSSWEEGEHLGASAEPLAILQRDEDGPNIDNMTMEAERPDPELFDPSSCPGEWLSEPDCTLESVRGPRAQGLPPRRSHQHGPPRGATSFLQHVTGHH
# [5] = molecular target: T4, HIPK4; assay: HotSpot radioisotope filter-binding kinase assay; format: biochemical
# [6] = molecular target: IRAK1 (Homo sapiens, UniProt P51617); assay: HotSpot radioisotope filter-binding kinase assay; format: biochemical
# [7] = molecular target: JAK1 (Homo sapiens, UniProt P23458); assay: HotSpot radioisotope filter-binding kinase assay; format: biochemical
# JAK1, sequence (P23458 whole entry): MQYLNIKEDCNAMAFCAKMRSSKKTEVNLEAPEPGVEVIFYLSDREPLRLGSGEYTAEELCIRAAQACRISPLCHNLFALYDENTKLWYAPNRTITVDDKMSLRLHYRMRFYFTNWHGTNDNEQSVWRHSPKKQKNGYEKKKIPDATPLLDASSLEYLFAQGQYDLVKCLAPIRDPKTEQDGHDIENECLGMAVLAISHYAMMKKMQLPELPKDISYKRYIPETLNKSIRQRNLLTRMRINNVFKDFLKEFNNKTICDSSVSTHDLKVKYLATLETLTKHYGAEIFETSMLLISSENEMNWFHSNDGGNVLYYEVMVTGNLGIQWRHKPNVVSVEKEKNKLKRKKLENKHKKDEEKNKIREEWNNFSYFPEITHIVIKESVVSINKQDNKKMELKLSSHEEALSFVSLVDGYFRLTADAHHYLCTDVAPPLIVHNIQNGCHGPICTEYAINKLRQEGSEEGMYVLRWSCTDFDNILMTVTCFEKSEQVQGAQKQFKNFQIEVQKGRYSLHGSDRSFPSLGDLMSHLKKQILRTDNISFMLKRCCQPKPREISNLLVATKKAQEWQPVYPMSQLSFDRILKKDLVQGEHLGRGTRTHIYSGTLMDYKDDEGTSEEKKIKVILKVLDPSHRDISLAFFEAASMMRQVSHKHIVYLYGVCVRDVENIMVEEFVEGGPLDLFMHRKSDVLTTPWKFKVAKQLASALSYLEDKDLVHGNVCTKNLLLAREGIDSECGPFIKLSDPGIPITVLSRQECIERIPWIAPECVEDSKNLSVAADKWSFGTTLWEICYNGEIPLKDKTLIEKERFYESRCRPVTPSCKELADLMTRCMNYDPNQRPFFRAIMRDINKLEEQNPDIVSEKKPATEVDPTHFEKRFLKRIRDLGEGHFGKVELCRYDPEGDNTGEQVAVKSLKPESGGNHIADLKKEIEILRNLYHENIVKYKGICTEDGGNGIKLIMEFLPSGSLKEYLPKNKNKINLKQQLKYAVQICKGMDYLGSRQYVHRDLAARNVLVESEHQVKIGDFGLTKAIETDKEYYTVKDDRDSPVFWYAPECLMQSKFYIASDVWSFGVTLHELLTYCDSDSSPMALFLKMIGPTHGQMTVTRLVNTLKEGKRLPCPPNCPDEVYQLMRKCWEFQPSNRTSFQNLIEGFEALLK
# [8] = molecular target: T2, ROS1; assay: HotSpot radioisotope filter-binding kinase assay; format: biochemical
# [9] = molecular target: T5, TNK1 (Homo sapiens, UniProt Q13470); assay: HotSpot radioisotope filter-binding kinase assay; format: biochemical
# T5 sequence (Q13470 1-666): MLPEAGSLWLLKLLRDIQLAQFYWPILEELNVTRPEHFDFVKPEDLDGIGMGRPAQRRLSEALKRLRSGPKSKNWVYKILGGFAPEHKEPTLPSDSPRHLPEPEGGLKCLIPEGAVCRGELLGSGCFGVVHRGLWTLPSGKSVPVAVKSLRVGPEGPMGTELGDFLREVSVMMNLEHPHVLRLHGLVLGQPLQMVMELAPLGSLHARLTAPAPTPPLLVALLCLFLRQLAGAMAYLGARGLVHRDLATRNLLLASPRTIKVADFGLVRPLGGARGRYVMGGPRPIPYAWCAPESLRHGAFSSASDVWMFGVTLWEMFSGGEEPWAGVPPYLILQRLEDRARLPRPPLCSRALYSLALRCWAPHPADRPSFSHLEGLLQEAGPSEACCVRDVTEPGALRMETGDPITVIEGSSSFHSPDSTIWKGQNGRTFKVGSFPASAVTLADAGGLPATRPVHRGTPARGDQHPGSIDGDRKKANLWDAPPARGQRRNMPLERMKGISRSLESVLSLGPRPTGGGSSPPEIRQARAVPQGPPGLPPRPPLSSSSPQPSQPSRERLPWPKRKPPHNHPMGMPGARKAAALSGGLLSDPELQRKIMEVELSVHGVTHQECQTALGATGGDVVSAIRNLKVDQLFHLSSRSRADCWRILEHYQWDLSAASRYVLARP
# [10] = molecular target: c-kit (Homo sapiens, UniProt P10721); assay: HotSpot radioisotope filter-binding kinase assay; format: biochemical
# [11] = system: phosphorylated IRAK1; settings: AML cells; cited from earlier work
# [12] = Steady-state peak plasma concentration after 400 mg daily; format: in vivo; settings: humans, calculated/simulated
# [13] = molecular target: TRKC (Homo sapiens, UniProt Q16288); assay: HotSpot radioisotope filter-binding kinase assay; format: biochemical
# [14] = system: AML cell lines; settings: AML cell lines harboring various mutations; cited from earlier work
# [15] = molecular target: T1, c-src; assay: HotSpot radioisotope filter-binding kinase assay; format: biochemical
# [16] = molecular target: T3, CSF1R (c-fms); assay: HotSpot radioisotope filter-binding kinase assay; format: biochemical
# [17] = molecular target: TYK2 (Homo sapiens, UniProt P29597); assay: HotSpot radioisotope filter-binding kinase assay; format: biochemical
# [18] = system: primary CMML cells; settings: cited from earlier work
# [19] = IC50, recombinant kinase, 10 μM ATP
# T2 sequence (P08922 28-2347): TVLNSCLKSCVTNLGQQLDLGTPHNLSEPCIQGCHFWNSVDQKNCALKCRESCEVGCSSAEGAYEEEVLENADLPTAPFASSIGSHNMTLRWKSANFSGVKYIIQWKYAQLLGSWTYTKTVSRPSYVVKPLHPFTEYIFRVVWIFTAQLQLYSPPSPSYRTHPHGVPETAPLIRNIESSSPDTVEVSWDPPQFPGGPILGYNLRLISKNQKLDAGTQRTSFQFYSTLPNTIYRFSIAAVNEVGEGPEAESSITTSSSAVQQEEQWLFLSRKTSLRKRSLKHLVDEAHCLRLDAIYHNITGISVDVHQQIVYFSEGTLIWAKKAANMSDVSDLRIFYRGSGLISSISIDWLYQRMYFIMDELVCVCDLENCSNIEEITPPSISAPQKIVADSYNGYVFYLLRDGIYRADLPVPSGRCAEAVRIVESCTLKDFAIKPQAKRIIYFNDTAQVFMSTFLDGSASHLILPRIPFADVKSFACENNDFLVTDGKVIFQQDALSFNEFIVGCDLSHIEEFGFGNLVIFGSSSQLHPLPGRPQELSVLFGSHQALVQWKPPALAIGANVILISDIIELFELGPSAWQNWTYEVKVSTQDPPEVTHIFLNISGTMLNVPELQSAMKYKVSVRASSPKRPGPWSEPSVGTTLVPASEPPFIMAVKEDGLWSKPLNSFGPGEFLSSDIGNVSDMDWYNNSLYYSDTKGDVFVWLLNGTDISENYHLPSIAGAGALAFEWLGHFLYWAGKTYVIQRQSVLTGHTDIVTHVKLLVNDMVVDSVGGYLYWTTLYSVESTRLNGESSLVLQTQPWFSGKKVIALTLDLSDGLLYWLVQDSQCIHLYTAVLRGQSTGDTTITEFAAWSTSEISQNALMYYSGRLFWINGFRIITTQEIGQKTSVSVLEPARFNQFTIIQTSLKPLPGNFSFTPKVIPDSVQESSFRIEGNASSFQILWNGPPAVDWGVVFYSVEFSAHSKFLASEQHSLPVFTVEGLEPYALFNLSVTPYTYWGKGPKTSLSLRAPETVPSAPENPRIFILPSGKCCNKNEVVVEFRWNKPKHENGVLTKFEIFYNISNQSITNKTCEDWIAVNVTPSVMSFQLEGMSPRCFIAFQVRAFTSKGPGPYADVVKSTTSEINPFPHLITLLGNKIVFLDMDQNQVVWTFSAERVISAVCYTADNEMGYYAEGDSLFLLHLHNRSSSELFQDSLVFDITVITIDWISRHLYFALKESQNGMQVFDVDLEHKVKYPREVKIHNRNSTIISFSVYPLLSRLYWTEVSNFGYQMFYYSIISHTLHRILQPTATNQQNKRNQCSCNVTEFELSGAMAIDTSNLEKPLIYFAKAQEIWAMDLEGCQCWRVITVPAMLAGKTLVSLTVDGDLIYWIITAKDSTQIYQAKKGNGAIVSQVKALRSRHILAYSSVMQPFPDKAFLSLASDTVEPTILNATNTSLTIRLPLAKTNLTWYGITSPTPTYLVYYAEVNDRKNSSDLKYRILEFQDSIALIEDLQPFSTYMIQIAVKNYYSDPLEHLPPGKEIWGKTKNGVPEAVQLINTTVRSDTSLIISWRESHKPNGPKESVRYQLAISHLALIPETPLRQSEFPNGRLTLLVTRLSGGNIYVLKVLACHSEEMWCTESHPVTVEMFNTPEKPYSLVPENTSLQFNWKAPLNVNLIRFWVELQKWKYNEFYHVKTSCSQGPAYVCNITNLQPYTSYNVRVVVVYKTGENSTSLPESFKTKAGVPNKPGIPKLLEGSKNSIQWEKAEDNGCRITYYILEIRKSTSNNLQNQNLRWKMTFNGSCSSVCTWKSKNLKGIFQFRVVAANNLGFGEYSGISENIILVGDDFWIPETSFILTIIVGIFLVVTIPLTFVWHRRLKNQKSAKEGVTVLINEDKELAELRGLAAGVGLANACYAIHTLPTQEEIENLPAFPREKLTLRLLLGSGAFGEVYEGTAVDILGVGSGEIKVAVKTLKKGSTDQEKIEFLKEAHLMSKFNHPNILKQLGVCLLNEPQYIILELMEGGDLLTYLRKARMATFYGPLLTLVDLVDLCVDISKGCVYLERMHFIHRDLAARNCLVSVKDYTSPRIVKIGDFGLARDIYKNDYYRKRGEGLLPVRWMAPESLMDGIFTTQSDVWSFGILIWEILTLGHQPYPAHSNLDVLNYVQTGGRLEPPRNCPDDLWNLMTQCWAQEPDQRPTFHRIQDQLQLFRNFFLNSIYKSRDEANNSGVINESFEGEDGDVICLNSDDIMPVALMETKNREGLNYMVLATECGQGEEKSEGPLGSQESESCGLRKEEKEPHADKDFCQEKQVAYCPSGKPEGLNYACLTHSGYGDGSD
# T1 sequence (P12931 whole entry): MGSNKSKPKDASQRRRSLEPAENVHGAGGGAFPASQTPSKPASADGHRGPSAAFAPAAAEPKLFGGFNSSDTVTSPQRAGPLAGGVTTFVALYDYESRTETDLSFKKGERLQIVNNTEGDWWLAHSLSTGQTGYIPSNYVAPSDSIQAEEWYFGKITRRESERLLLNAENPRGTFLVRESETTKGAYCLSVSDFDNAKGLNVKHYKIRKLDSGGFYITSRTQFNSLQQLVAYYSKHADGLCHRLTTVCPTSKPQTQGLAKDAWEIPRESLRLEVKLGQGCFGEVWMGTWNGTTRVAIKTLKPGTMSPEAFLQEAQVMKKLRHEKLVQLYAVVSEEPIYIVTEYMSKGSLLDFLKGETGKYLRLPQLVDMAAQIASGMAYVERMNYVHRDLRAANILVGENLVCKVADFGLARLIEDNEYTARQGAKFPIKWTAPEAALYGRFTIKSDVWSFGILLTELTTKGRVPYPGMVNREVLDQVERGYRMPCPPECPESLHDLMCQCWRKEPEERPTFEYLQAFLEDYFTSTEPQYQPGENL
smiles,measurement,setting,value
N#CCNC(=O)c1ccc(-c2ccnc(Nc3ccc(N4CCOCC4)cc3)n2)cc1 [Momelotinib],pIC50,[1],< 6.00
same,pIC50,[2],> 6.00
same,pIC50,[3],> 6.00
same,pIC50,[4],> 6.00
"C1=C/COCc2cc(ccc2OCCN2CCCC2)Nc2nccc(n2)-c2cccc(c2)COC/1 [Pacritinib, 11-(2-pyrrolidin-1-yl-ethoxy)-14,19-dioxa-5,7,26-triaza-tetracyclo[19.3.1.1(2,6). 1(8,12)]heptacosa-1(25),2(26),3,5,8,10,12(27),16,21,23-decaene]",pIC50,"[5]; IC50 (class), Pacritinib scale",> 7.60
same,pIC50,[5]; [19],7.84
same,pIC50,"[6]; IC50 (class), Pacritinib scale",> 7.60
same,pIC50,[6]; [19],7.87
same,pIC50,[7],< 7.00
same,remaining activity at 0.1 µM,[7]; read-out: kinase activity remaining (% control),82%
same,IC50,"[7]; recombinant kinase, 10 μM ATP",Indeterminate
same,pIC50,"[8]; IC50 (class), Pacritinib scale",> 7.60
same,pIC50,[8]; [19],7.74
same,pIC50,"[9]; IC50 (class), Pacritinib scale",> 7.60
same,pIC50,[9]; [19],7.82
same,pIC50,"[10]; IC50 (class), Pacritinib scale",7.30 to 7.60
same,pIC50,[10]; [19],7.36
same,phosphorylation of IRAK1,[11],inhibits the phosphorylation of IRAK1
same,total steady-state levels,[12],5 to 7 µM
same,mean peak plasma concentration of free drug at steady state,[12]; oral,approximately 200 nM
same,pIC50,"[13]; IC50 (class), Pacritinib scale",> 7.60
same,pIC50,[13]; [19],7.74
same,viability and survival,[14],reduces both the viability and survival
same,pIC50,"[15]; IC50 (class), Pacritinib scale",7.30 to 7.60
same,pIC50,[15]; [19],7.33
same,pIC50,"[16]; IC50 (class), Pacritinib scale",7.30 to 7.60
same,pIC50,[16]; [19],> 7.30
same,pIC50,"[17]; IC50 (class), Pacritinib scale",7.30 to 7.60
same,pIC50,[17]; [19],7.57
same,activity combined with 5-azacitidine,[18],synergistic activity
